# Tested on: bile flow and bile solids
# Test: Choleretic activity: bile flow and bile solids after bile duct cannulation in normal anaesthetised rats
# Type: in vivo
# Conditions: 50 mg kg-1 i.d., bile collected 0-5 hours, mean ±SE
# From the text: The liver, by producing bile, plays an important role in digestion. The presence of bile in the intestine is necessary to accomplish the digestion and absorption of fats as well as absorption of the fat-soluble vitamins- A, D, E & K. Bile is also an important vehicle of excretion. It removes many drugs, toxins, bile pigments and various inorganic substances either derived from the diet or synthesized by the body as cholesterol or as cholic acid.
# Effect on the liver bile flow of test drug and that of vehicle is carried out after cannulating the bile duct in normal anaesthesied rats. Bile collected is from each animal from 0-5 hours (Klaassen, 1969, Donal et al.1953). (Table 5)
structure (smiles),measurement,value
"C[C@H](CCC(=O)O)[C@H]1CC[C@H]2[C@@H]3C(=O)C[C@@H]4CC(=O)CC[C@]4(C)[C@H]3CC(=O)[C@]12C [DHC, Dehydrocholic acid, reference compound]",Bile parameters % Increase (as compared to normal) Bile flow,38.40±2.76 ml%
same,Bile parameters % Increase (as compared to normal) Bile solids,28.13±3.89 mg%
